In US6191152A, “2-(1,2,4-triazole-1-yl)-1,3,4-thiadiazole derivatives having an effect on the C.N.S. and the heart” (EGIS Gyogyszergyar Rt., priority 1997, dated 2001):

What was measured:
5-HT2C receptor = molecular target: T1, 5-HT2C receptor (Sus scrofa, UniProt K7GSR7); assay: 5-HT2C receptor binding, pig brain choroid plexus membrane, tritiated mesulergine; details: read-out: Inhibition of receptor binding of the radioactive ligand (Ki), 5-HT2C
T1 construct: pig brain choroid plexus membrane-preparation; from tissue; host or cells: pig brain choroid plexus membranes
T1 sequence (K7GSR7 1-457): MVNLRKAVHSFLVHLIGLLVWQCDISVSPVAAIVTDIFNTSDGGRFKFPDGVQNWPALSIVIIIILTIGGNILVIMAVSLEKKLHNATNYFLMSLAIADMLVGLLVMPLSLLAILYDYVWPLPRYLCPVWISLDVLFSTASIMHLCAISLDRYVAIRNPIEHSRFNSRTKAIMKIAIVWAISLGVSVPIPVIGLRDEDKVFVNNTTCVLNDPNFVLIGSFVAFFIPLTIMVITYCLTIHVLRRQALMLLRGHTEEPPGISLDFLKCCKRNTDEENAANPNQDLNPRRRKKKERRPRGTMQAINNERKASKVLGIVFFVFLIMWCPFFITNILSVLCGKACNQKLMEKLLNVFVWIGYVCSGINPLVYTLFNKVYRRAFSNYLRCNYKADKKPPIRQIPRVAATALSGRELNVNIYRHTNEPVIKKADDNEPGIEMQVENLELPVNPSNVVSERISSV
Procedure: (§1) 4) 5-HT2A and 5-HT2C Receptor Binding Studies
(§2) 5-HT2A and 5-HT2C receptor binding was measured according to the methods described by Leysen et al. /Mol. Pharmacol., 21, 301 (1981)/and Pazos et al. /Eur. J. Pharmacol., 106, 539 (1985)/, respectively. 5-HT2A receptor binding was measured in rat brain frontal cortex membrane preparation using tritiated ketanserine /3-/2-(4-fluorobenzoyl)-1-piperidinyl/ethyl-2,4-(1H,3H)-quinazolinedione/ (60-90 Ci/mmole) as ligand. 5-HT2C receptor binding was measured in pig brain choroid plexus membrane-preparation using tritiated mesulergine /N'-/(8)-1,6-dimethylergoline-8-yl/-N,N-dimethylsulfamide (70-85 Ci/mmole) as the ligand. Non-specific binding to 5-HT2A and 5-HT2C receptors were determined in the presence of 10 micromoles of cyproheptadine /4-(5H-dibenzo/a,d/cycloheptene-5-ylidene)-1-methylpiperidine/and 1 micromole of mianserine /1,2,3,4,10,14b-hexahydro-2-methyldibenzo/c,f/pyrazino/1,2-a/azepine/, respectively. The final incubation volumes were 250 and 1000 microlitres. Samples were incubated for 15 and 30 minutes at 37° C. Incubation was stopped by adding 9 ml of ice-cold 50 mr- tris(hydroxymethyl)aminomethane hydrochloride (pH=7.7) to the reaction mixture. The samples were rapidly filtered through whatman GF/B glass fiber filters using reduced pressure. […] Radioactivity of the filters was determined by a scintillation spectrometer.

5-HT2A receptor = molecular target: T2, 5-HT2A receptor (Rattus norvegicus, UniProt P14842); assay: 5-HT2A receptor binding, rat brain frontal cortex membrane, tritiated ketanserine; details: read-out: Inhibition of receptor binding of the radioactive ligand (Ki), 5-HT2A
T2 construct: rat brain frontal cortex membrane preparation; from tissue; host or cells: rat brain frontal cortex membranes
Procedure: as §1, §2

[1] = tested on: isolated rat thoracic aorta; assay: Vascular relaxing effect in isolated rat thoracic aorta contracted with 40 mM potassium chloride (diltiazem); parameters: species or system rat (male SPRD); details: 40 mM KCl contracted strips, 37° C., read-out: IC50 (vascular relaxation in isolated rat thoracic aorta)
Procedure: Experiments were performed in thoracic aortas obtained from male SPRD rats weighing 250 to 300 g. Thoracic aortas excised from rats killed by decapitation and ensanguination were cleaned of fat and connective tissue, then were immediately placed in carbogenized TYRODE solution. The composition of the normal TYRODE solution was the following (in mM): NaCl 114.7, KCl 3.7, CaCl2 3.6, MgCl2 0.49, NaHCO3 19.9, NaH2 PO4 0.32, glucose 5.1.
Two mm wide and 20 to 25 mm long strips were cut from the aortas along a helical line at 45° angle. Aortic strips were mounted vertically between two cotton threads in 10 ml organ chambers, the lower threads were attached to the organ chambers and the upper threads were connected to isometric force transducers. The strips were incubated under 1 g resting tension at 37° C. for 120 minutes, then resting vascular tone was recorded. […]
When stable vascular tone developed, increasing doses of the test substance were added to the organ bath. The effects of each test substance were measured at least in 3 tissue preparations obtained from different animals. Decreases in vascular tension caused by the test substances were expressed as percentage changes and IC50 for each tissue preparation was determined by sigmoid (in few casses linear) curve fitting. […]

human beings = details: Ceulemans et al.; cited from earlier work

T2 sequence (P14842 whole entry): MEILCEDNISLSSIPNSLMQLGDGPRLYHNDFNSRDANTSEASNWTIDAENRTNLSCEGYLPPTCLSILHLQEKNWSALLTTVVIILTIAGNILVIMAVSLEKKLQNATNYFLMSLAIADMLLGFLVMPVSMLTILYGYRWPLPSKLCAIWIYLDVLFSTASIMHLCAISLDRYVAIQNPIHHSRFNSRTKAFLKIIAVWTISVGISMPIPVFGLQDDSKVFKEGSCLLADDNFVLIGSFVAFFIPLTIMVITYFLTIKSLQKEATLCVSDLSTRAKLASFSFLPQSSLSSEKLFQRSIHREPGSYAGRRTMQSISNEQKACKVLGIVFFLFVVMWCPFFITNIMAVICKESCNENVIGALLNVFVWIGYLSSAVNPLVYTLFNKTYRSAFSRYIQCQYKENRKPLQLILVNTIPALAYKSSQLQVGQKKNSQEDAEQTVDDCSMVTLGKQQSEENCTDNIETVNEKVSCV

IC50 [1] [nM]	Structure (SMILES)	Ki (5-HT2C receptor) [nM]	Ki (5-HT2A receptor) [nM]	treatment of different forms of human anxiety (human beings)
–	CN(C)CCCOc1ccccc1-c1nnc(-n2nc(N3CCCC3)nc2N)s1 [Example 44, 2-(5-Amino-3-pyrrolidino-1H-1,2,4-triazole-1-yl)-5-/ 2-(3-dimethylaminopropoxy)phenyl/-1,3,4-thiadiazole]	50	> 100	–
–	COc1ccc(CCN(C)CCCOc2ccccc2-c2nnc(-n3nc(SC)nc3N)s2)cc1OC [Example 98, 2-(5-Amino-3-methylthio-1H-1,2,4-triazole-1-yl)-5-{2-[3-methyl-3-/ 2-(3,4-dimethoxyphenylethyl)amino/propoxy]phenyl}-1,3,4-thiadiazole]	24	> 1000	–
150	COc1ccc([C@@H]2Sc3ccccc3N(CCN(C)C)C(=O)[C@@H]2OC(C)=O)cc1 [diltiazem, (2S)-cis-3-acetyloxy-5-(2-dimethylamino-ethyl)-2,3-dihydro-2-(4-methoxyphenyl)-1,5-benzothiazepine-4(5H)-one]	–	–	–
–	Cc1nc2sccn2c(=O)c1CCN1CCC(=C(c2ccc(F)cc2)c2ccc(F)cc2)CC1 [ritanserin, 6-[2-/4-bis(4-fluorophenyl)-methylene/ -1-piperidinylethyl]-7-methyl-5H-thiazolo/3,2-a/pyrimidine-5-one]	–	–	proved to be effective for the treatment of different forms of human anxiety
